Test results: patent publication US10611778B2, “Fused bicyclic inhibitors of menin-MLL interaction” (Janssen Pharmaceutica NV, priority 2016, dated 2020)

Assays:
[1] = system: MV-4-11; assay: Proliferation assay (spheroid assay) MV-4-11; type: cell-based, human; details: Homo sapiens, MV4-11, MV-4-11; averaged values over all measurements; read-out: Spheroid assay MV-4-11 (IC50)
Description: (§1) The anti-proliferative effect of menin/MLL protein/protein interaction inhibitor test compounds was assessed in human leukemia cell lines. The cell lines MV-4-11 and MOLM14 harbor MLL translocations and express the MLL fusion proteins MLL-AF4 and MLL-AF9, respectively, as well as the wildtype protein from the second allele. […] K562 and KG1 were used as a control cell lines containing two MLL wildtype alleles in order to exclude compounds that display general cytotoxic effects.
(§2) MV-4-11 and MOLM14 were cultured in RPMI-1640 (Sigma Aldrich) supplemented with 10% fetal bovine serum (HyClone), 2 mM L-glutamine (Sigma Aldrich) and 50 μg/ml gentamycin (Gibco). K562 were propagated in RPMI-1640 (Sigma Aldrich) supplemented with 20% fetal bovine serum (HyClone), 2 mM L-glutamine (Sigma Aldrich) and 50 μg/ml gentamycin (Gibco). KG1 were cultured in Iscove's MDM (Gibco) supplemented with 20% fetal bovine serum (HyClone), 2 mM L-glutamine (Sigma Aldrich) and 50 μg/ml gentamycin (Gibco).
(§3) In order to assess the anti-proliferative effects, 1,500 MV-4-11, 300 MOLM14, 750 K562 or 1,300 KG1 cells were seeded in 200 μl media per well in 96-well round bottom, ultra-low attachment plates (Costar, catalogue number 7007). Cell seeding numbers were chosen based on growth curves to ensure linear growth throughout the experiment. Test compounds were added at different concentrations and the DMSO content was normalized to 0.3%. Cells were incubated for 8 d at 37° C. and 5% CO2. Spheroid like growth was monitored in real-time by live-cell imaging (IncuCyteZOOM, Essenbio, 4× objective) acquiring one image every four hours for 8 d. Confluence (%) as a measure of spheroid size was determined using an integrated analysis tool.
(§4) In order to determine the cumulative effect of the test compounds over time, the area under the curve (AUC) in a plot of confluence against time was calculated. Confluence at the beginning of the experiment (t=0) was used as baseline for the AUC calculation.
(§5) Absolute IC50 values were calculated according to the following procedure: % Control=(AUC sample/AUC control)*100
(§6) AUC control=mean AUC of control values (cells without compound/DMSO as vehicle control)
(§7) A non-linear curve fit was applied using the least squares (ordinary) fit method to the plot of % control versus compound concentration. Based on this, the absolute IC50 value (half maximal inhibitory concentration of the test compound causing an anti-proliferative effect of 50% relative to the vehicle control) was calculated.

[2] = target: T1, Menin/MLL (menin, FITC-MBM1 peptide) (Homo sapiens, UniProt O00255, T541A); assay: Menin/MLL fluorescence polarization (FP) assay; type: binding; details: averaged values over all measurements; read-out: Menin FP assay (IC50)
T1 construct: 6xHis (C)
T1 sequence (O00255 with tags, fused parts or gaps T541A): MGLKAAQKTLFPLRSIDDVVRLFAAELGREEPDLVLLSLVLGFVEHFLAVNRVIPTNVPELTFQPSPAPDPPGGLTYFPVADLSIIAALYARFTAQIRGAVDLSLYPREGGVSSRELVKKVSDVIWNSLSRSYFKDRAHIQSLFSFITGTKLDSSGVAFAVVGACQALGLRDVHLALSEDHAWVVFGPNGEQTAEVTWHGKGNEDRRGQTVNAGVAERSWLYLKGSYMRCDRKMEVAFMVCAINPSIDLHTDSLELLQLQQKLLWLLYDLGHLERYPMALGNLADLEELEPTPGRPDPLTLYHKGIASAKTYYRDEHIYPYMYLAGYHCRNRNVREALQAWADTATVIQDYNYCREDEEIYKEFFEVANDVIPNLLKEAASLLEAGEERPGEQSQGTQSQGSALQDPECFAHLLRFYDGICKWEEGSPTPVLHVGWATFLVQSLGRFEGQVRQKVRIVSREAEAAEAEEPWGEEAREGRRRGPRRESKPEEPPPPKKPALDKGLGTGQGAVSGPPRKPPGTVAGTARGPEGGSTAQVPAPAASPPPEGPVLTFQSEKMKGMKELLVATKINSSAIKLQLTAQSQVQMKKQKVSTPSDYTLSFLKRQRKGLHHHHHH
Description: Pharmacological Part 1) Menin/MLL Fluorescence Polarization Assay
To a non-surface binding, black 384-well microtiter plate was added 50 nL 160× test compound in DMSO and 4 μL 2× menin in assay buffer (40 mM Tris-HCl, pH 7.5, 50 mM NaCl, 1 mM DTT and 0.001% Tween 20). After incubation of test compound and menin for 10 min at ambient temperature, 4 μL 2×FITC-MBM1 peptide (FITC-β-alanine-SARWRFPARPGT-NH2) in assay buffer was added, the microtiter plate centrifuged at 1000 rpm for 1 min and the assay mixtures incubated for 15 min at ambient temperature. The relative amount of menin: FITC-MBM1 complex present in an assay mixture is determined by measuring the fluorescence polarization (FP) of the FITC label with a BMG Pherastar plate reader (ex. 485 nm/em. 520 nm) at ambient temperature. The final concentrations of reagents in the binding assay are 100 nM menin, 5 nM FITC-MBM1 peptide and 0.625% DMSO in assay buffer. Dose-response titrations of test compounds are conducted using an 11 point, three-fold serial dilution scheme, starting at 31 μM.
Compound potencies were determined by first calculating % inhibition at each compound concentration according to equation 1: % inhibition=((HC−LC)−(FP^compound−LC))/(HC−LC))*100 (Eqn 1)
(§8) Where LC and HC are the FP values of the assay in the presence or absence of a saturating concentration of a compound that competes with FITC-MBM1 for binding to menin, and FP^compound is the measured FP value in the presence of the test compound. HC and LC FP values represent an average of at least 16 replicates per plate.
(§9) Where Bottom and Top are the lower and upper asymptotes of the dose-response curve, respectively, IC50 is the concentration of compound that yields 50% inhibition of signal and h is the Hill coefficient.

[3] = system: MOLM14; assay: Proliferation assay (spheroid assay) MOLM14; type: cell-based, human; details: Homo sapiens, MOLM-14, MOLM14; averaged values over all measurements; read-out: Spheroid assay MOLM14 (IC50)
Description: as §1, §2, §3, §4, §5, §6, §7

[4] = target: T2, Menin/MLL (terbium chelate-labeled menin, FITC-MBM1 peptide) (Homo sapiens, UniProt O00255, T541A); assay: Menin/MLL homogenous time-resolved fluorescence (HTRF) assay; type: binding; details: averaged values over all measurements; read-out: Menin HTRF assay (IC50)
T2 construct: Menin (a.a. 1-610-6×his tag) was labeled with terbium cryptate as follows
T2 sequence (O00255 with tags, fused parts or gaps T541A): T1 sequence (O00255 with tags, fused parts or gaps T541A)
Description: 3) Menin/MLL Homogenous Time-Resolved Fluorescence (HTRF) Assay
To an untreated, white 384-well microtiter plate was added 40 nL 200× test compound in DMSO and 4 μL 2× terbium chelate-labeled menin (vide infra for preparation) in assay buffer (40 mM Tris-HCl, pH 7.5, 50 mM NaCl, 1 mM DTT and 0.05% Pluronic F-127). After incubation of test compound and terbium chelate-labeled menin for 5 min at ambient temperature, 4 μL 2×FITC-MBM1 peptide (FITC-β-alanine-SARWRFPARPGT-NH2) in assay buffer was added, the microtiter plate centrifuged at 1000 rpm for 1 min and the assay mixtures incubated for 15 min at ambient temperature. The relative amount of menin⋅FITC-MBM1 complex present in an assay mixture is determined by measuring the homogenous time-resolved fluorescence (HTRF) of the terbium/FITC donor/acceptor fluorophore pair using a BMG Pherastar plate reader (ex. 337 nm/terbium em. 490 nm/FITC em. 520 nm) at ambient temperature. The degree of fluorescence resonance energy transfer (the HTRF value) is expressed as the ratio of the fluorescence emission intensities of the FITC and terbium fluorophores (F^em 520 nm/F^em 490 nm). The final concentrations of reagents in the binding assay are 100 pM terbium chelate-labeled menin, 75 nM FITC-MBM1 peptide and 0.5% DMSO in assay buffer. Dose-response titrations of test compounds are conducted using an 11 point, three-fold serial dilution scheme, starting at 31 μM.
Compound potencies were determined by first calculating % inhibition at each compound concentration according to equation 1: % inhibition=((HC−LC)−(HTRF^compound−LC))/(HC−LC))*100 (Eqn 1)
as §8, with “HTRF” for “FP”, “HTRF^compound” for “FP^compound”
as §9
Preparation of Terbium cryptate labeling of Menin: Menin (a.a. 1-610-6×his tag) was labeled with terbium cryptate as follows. 2 mg of Menin was buffer exchanged into 1× phosphate buffered saline. 16 uM Menin was incubated with 4-fold molar excess NHS-terbium cryptate (Cisbio Bioassays, Bedford, Mass.) for 2 hours at room temperature. The labeled protein was purified away from free label by running the reaction over a Superdex 200 Increase 10/300 GL column at 0.75 ml/min. Peak fractions were collected, aliquoted and frozen at −80° C.

Row | Compound | IC50 [1] | IC50 [2] | IC50 [3] | IC50 [4]
1 | Cn1cc(CN2CC[C@@H]3CN(c4ncnc5sc(CC(F)(F)F)cc45)CC[C@@H]32)cn1 (single isomer, unassigned) [Compound 13] | 13.7 µM | 0.52 µM | > 15 µM | 
2 | Cn1ccc(CN2CC[C@@H]3CN(c4ncnc5sc(CC(F)(F)F)cc45)CC[C@@H]32)n1 (single isomer, unassigned) [Compound 14] |  | 1.12 µM |  | 
3 | Cn1cc(CN2CC[C@@H]3CN(c4ncnc5sc(CC(F)(F)F)cc45)C[C@@H]32)cn1 [Compound 27A] |  | 4.54 µM |  | 10 µM
4 | Cn1cc(CN2CCCC3C2CCN3c2ncnc3sc(CC(F)(F)F)cc23)cn1 (centres unmarked) [Compound 21] |  | 1.77 µM |  | 2.12 µM
5 | CC(C)CN1CC[C@@H]2CN(c3ncnc4sc(CC(F)(F)F)cc34)C[C@@H]21 (single isomer, unassigned) [Compound 28A] |  | 1.17 µM |  | 1.73 µM
6 | O=S(=O)(c1ccccc1)N1CC[C@H]2CN(c3ncnc4sc(CC(F)(F)F)cc34)CC[C@H]21 (single isomer, unassigned) [Compound 17] |  | 1.85 µM |  | 
7 | FC(F)(F)Cc1cc2c(N3CCC4C(CCN4Cc4ncc[nH]4)C3)ncnc2s1 (centres unmarked) [Compound 22] |  | 2.41 µM |  | 
8 | [CH3][Ge]([CH3])([CH3])[CH2]N1CCC2CN(c3ncnc4sc(CC(F)(F)F)cc34)CCC21 (centres unmarked) [Compound 15] |  | 0.13 µM |  | 0.12 µM
9 | O=S(=O)(c1ccccc1)N1CC[C@@H]2CN(c3ncnc4sc(CC(F)(F)F)cc34)CC[C@@H]21 [Compound 16] |  | 1.53 µM |  | 
10 | Cn1cc(CN2CC[C@H]3CN(c4ncnc5sc(CC(F)(F)F)cc45)C[C@H]32)cn1 [Compound 27B] |  | 3.65 µM |  | 8.99 µM
11 | Cn1ccnc1CN1CCC2CN(c3ncnc4sc(CC(F)(F)F)cc34)CCC21 (centres unmarked) [Compound 19] |  | 1.77 µM |  | 4.57 µM
12 | NCCn1cc(CN2CCC3CN(c4ncnc5sc(CC(F)(F)F)cc45)CCC32)cn1 (centres unmarked) [Compound 26] | 4.7 µM |  | 5.6 µM | 0.054 µM

The remaining lines, values ahead:

Row | IC50 [1] | IC50 [2] | IC50 [3] | IC50 [4] | Compound
13 | 0.84 µM | 0.088 µM | 6.7 µM | 0.07 µM | Cn1cc(CN2CCC3CN(c4ncnc5sc(CC(F)(F)F)cc45)CC3C2)cn1 (centres unmarked) [Compound 71]
14 |  | 0.78 µM |  | 1.98 µM | Cn1cc(CN2CC3CCN(c4ncnc5sc(CC(F)(F)F)cc45)CC3C2)cn1 (centres unmarked) [Compound 34]
15 |  | 1.19 µM |  | 2.1 µM | FC(F)(F)Cc1cc2c(N3C[C@H]4CN(Cc5ccccc5)[C@H]4C3)ncnc2s1 [Compound 33]
16 |  | 1.02 µM |  | 0.906 µM | FC(F)(F)Cc1cc2c(N3CCC4C(CCN4Cc4cc[nH]n4)C3)ncnc2s1 (centres unmarked) [Compound 84]
17 |  | 1.38 µM |  | 2.49 µM | CC(C)CN1CC[C@H]2CN(c3ncnc4sc(CC(F)(F)F)cc34)C[C@H]21 (single isomer, unassigned) [Compound 28B]
18 |  | 1.56 µM |  | 2.78 µM | FC(F)(F)Cc1cc2c(N3C[C@@H]4CN(Cc5ccccc5)[C@@H]4C3)ncnc2s1 [Compound 32]
19 | 0.34 µM |  |  | 0.023 µM | CNc1cc(CN2CC[C@@H]3CN(c4ncnc5sc(CC(F)(F)F)cc45)C[C@@H]3C2)ccn1 (single isomer, unassigned) [Compound 107]
20 | 2.1 µM |  |  | 0.069 µM | O=C(C1COC1)N1CCC(CN2CC[C@@H]3CN(c4ncnc5sc(CC(F)(F)F)cc45)C[C@@H]3C2)CC1 (single isomer, unassigned) [Compound 95]
21 | 1.4 µM |  |  | 0.041 µM | FC(F)(F)Cc1cc2c(N3C[C@H]4CCN(Cc5cccnc5)C[C@H]4C3)ncnc2s1 (single isomer, unassigned) [Compound 56]
22 | 2.9 µM |  |  | 0.266 µM | Cn1ccc(CN2CC[C@@H]3CN(c4ncnc5sc(CC(F)(F)F)cc45)C[C@@H]3C2)cc1=O (single isomer, unassigned) [Compound 68]
